Entries after “also recorded” stand apart in the source; their conditions may differ.
Assays:
COX-2 = assay: Western blot of COX-2 in paw exudates; type: in vivo, rat; conditions: NOSH-1 at 2 doses one hour before carrageenan
Experimental: Exudates (oedema fluid) and some tissue were homogenized in lysis buffer (0.1% Triton X-100, 50 μM pepstatin, 0.2 mM leupeptin, 1 μg/mL aprotinin, 10 mg/ml phenylmethylsulfonyl fluoride, 50 mM Tris, and 10 mM EDTA). Samples were then centrifuged, and the protein concentration of the supernatant was determined by colorimetric assay (Bio-Rad, Hercules, Calif.). Protein (30 μg) was separated on a 10% polyacrylamide gel and then transferred to a nitrocellulose membrane (Bio-Rad, Hercules, Calif.). Proteins were probed with monoclonal mouse antibody against COX-1 and COX-2 (1:500; Cayman Chemical, Ann Arbor, Mich.). The membrane was then incubated with a goat anti-mouse IgG secondary antibody conjugated to horseradish peroxidase (Santacruz Biotechnology, Santa Cruz, Calif.). A chemiluminescence reagent (Amersham Pittsburg, Pa.) was added to visualize the labeling according to the manufacturer's instructions.

HT-29 colon cancer cells = assay: Cell proliferation, PCNA expression; type: cell-based, human; conditions: 24 hours
Experimental: Growth inhibition was measured using a colorimetric MTT assay kit (Roche, Indianapolis, Ind.). Proliferation (PCNA) was assessed using an ELISA kit from Calbiochem, (La Jolla, Calif.). Cell cycle phase distributions and apoptosis of control and treated cells were determined as previously described. All methods are described in Chattopadhyay et al., Biochemical Pharmacology, 2012, 83(6), 715-722.

[1] = test system: MDA-MB-231 (ER−) breast cancer cell xenograft; assay: MDA-MB-231 xenograft in athymic nude mice; type: in vivo, mouse
Text: Male athymic nude (NU/NU) mice, age 5 weeks, were purchased from Charles River Laboratories, Inc., (Wilmington, Mass.) and were housed according to institutional and NIH guidelines.
Human colon (SW480), Breast (MCF-7, MDA-MB-231), and pancreas (MIA PaCa2) cancer cells (2×10^6) suspended in Matrigel (BD Biosciences, San Jose, Calif.) 50% v/v were inoculated subcutaneously in the right flanks of each mouse (10 mice per group) using a 1-mL syringe and 22-gauge needles. After 10 days the animals from each implanted cell line were randomly divided into 2 groups (N=5/group) and gavaged daily with either vehicle (1% methylcelloluse) or NOSH-naproxen (100 mg/kg) or NOSH (100 mg/kg), the ADT-OH-butyl nitrate compound that releases H2S and NO, in the case of colon cancer xenografts; or NOSH-aspirin (100 mg/kg body weight) in the breast and pancreatic cancers groups. The tumor size was measured every other day using electronic calipers, the tumor volumes were calculated using the following formula: length×width^2/2. The weights of the mice were also recorded every 3 days. Twenty-seven (27) to thirty (30) days post inoculation, the mice were sacrificed, the tumors collected, weighed, and photographed.

O=C(CCCO[N+](=O)[O-])Oc1ccccc1C(=O)Oc1ccc(-c2cc(=S)ss2)cc1 [NOSH-1, 4-(3-thioxo-3H-1,2-dithiol-5-yl)phenyl 2-((4-(nitrooxy)butanoyl)oxy)benzoate]
COX-2 expression in paw exudates induced by carrageenan (COX-2): inhibited induction; also recorded: dose-dependently inhibited | reduction of PCNA expression (HT-29 colon cancer cells; 0.5×IC50 (25 nM)): 18.2±1.5% | reduction of PCNA expression (HT-29 colon cancer cells; 1×IC50 (50 nM)): 50.3±3.2% | reduction of PCNA expression (HT-29 colon cancer cells; 2×IC50 (100 nM)): 77.4±2.2% | mean tumor volume ([1]; 100 mg/kg daily gavage, end of study, control 1886±200): 35±9 mm^3 | reduction of tumor mass ([1]; 100 mg/kg daily, day 27, vs control): 91% | average tumor mass ([1]; 100 mg/kg daily, day 27, control 1.2±0.33): 0.11 ± 0.058 g | mean reduction of tumor volume ([1]; 100 mg/kg daily, vs control): 98%

Reference: patent US10450260B2, “NO- and H2S-releasing compounds” (RESEARCH FOUNDATION OF THE CITY UNIVERSITY OF NEW YORK, priority 2011, dated 2019)
